Data: ChEMBL document CHEMBL3085680, “Design and synthesis of P1-P3 macrocyclic tertiary-alcohol-comprising HIV-1 protease inhibitors” (J Med Chem, 2013)

Legend:
[1] = Cytotoxicity against human MT4 cells after 5 days by XTT assay; assay type: cell-based
[2] = biological target: Protease (Human immunodeficiency virus 1, UniProt Q9YQ12); experiment: Inhibition of HIV1 protease expressed in Escherichia coli by fluorometric assay
[3] = test system: Human immunodeficiency virus; experiment: Antiviral activity against HIV infected in human MT4 cells assessed as inhibition of virus-induced cytopathogenic effect by XTT assay; assay type: functional, organism-based; settings: Human immunodeficiency virus 1, MT4
[4] = Permeability of the compound across human Caco2 cells; assay type: ADME, cell-based; settings: Caco-2, read-out: permeability

Protease, sequence (Q9YQ12 whole entry): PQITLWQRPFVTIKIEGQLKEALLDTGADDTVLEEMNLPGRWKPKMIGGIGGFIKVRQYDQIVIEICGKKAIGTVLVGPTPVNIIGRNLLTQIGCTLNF

C=CCNC(=O)[C@@H](NC(=O)[C@@](O)(CCCN(Cc1ccc(Br)cc1)NC(=O)[C@@H](NC(=O)OC)C(C)(C)C)Cc1ccc(Br)cc1)C(C)C
CC50 at 120 h [1]: 22 µM | Ki [2]: 0.011 µM | EC50 [3]: 5.8 µM

C=CCNC(=O)[C@@H](NC(=O)[C@@](O)(CCCN(Cc1ccc(Br)cc1)NC(=O)[C@@H](NC(=O)OC)C(C)(C)C)Cc1ccc(Br)cc1)C(C)(C)C
CC50 at 120 h [1]: 29 µM | Ki [2]: 0.01 µM | EC50 [3]: 2.9 µM

C=CCNC(=O)[C@@H](NC(=O)[C@@](O)(CCCN(Cc1ccc(Br)cc1)NC(=O)[C@@H](NC(=O)OC)C(C)(C)C)Cc1ccc(C=C)cc1)C(C)C
CC50 at 120 h [1]: 25 µM | Ki [2]: 0.015 µM | EC50 [3]: 6.9 µM

C=CCNC(=O)[C@@H](NC(=O)[C@@](O)(CCCN(Cc1ccc(Br)cc1)NC(=O)[C@@H](NC(=O)OC)C(C)(C)C)Cc1ccc(C=C)cc1)C(C)(C)C
Papp [4]: 45 ×10⁻⁶ cm/s | CC50 at 120 h [1]: 44 µM | Ki [2]: 0.016 µM | EC50 [3]: 5.3 µM

C=CCNC(=O)[C@@H](NC(=O)[C@@](O)(CCCN(Cc1ccc(Br)cc1)NC(=O)[C@@H](NC(=O)OC)C(C)(C)C)Cc1ccc(CC=C)cc1)C(C)C
Papp [4]: 44 ×10⁻⁶ cm/s | CC50 at 120 h [1]: 24 µM | Ki [2]: 0.03 µM | EC50 [3]: 6 µM

C=CCNC(=O)[C@@H](NC(=O)[C@@](O)(CCCN(Cc1ccc(Br)cc1)NC(=O)[C@@H](NC(=O)OC)C(C)(C)C)Cc1ccc(CC=C)cc1)C(C)(C)C
Papp [4]: 44 ×10⁻⁶ cm/s | CC50 at 120 h [1]: > 50 µM | Ki [2]: 0.037 µM | EC50 [3]: 7.5 µM

C=CCNC(=O)[C@@H](NC(=O)[C@](O)(CCCN(Cc1ccc(Br)cc1)NC(=O)[C@@H](NC(=O)OC)C(C)(C)C)Cc1ccc(Br)cc1)C(C)C
CC50 at 120 h [1]: 4.5 µM | Ki [2]: 1 µM | EC50 [3]: > 50 µM

C=CCNC(=O)[C@@H](NC(=O)[C@](O)(CCCN(Cc1ccc(Br)cc1)NC(=O)[C@@H](NC(=O)OC)C(C)(C)C)Cc1ccc(Br)cc1)C(C)(C)C
CC50 at 120 h [1]: 21 µM | Ki [2]: 0.98 µM | EC50 [3]: > 50 µM

C=CCNC(=O)[C@@H](NC(=O)[C@](O)(CCCN(Cc1ccc(Br)cc1)NC(=O)[C@@H](NC(=O)OC)C(C)(C)C)Cc1ccc(C=C)cc1)C(C)C
CC50 at 120 h [1]: 5.8 µM | Ki [2]: 0.78 µM | EC50 [3]: > 50 µM

C=CCNC(=O)[C@@H](NC(=O)[C@](O)(CCCN(Cc1ccc(Br)cc1)NC(=O)[C@@H](NC(=O)OC)C(C)(C)C)Cc1ccc(C=C)cc1)C(C)(C)C
CC50 at 120 h [1]: 25 µM | Ki [2]: 0.72 µM | EC50 [3]: > 50 µM

COC(=O)N[C@H](C(=O)NN(CCC[C@@]1(O)Cc2ccc(cc2)/C=C\CNC(=O)[C@H](C(C)(C)C)NC1=O)Cc1ccc(Br)cc1)C(C)(C)C
Papp [4]: 31 ×10⁻⁶ cm/s | CC50 at 120 h [1]: 40 µM | Ki [2]: 0.005 µM | EC50 [3]: 3.3 µM

COC(=O)N[C@H](C(=O)NN(CCC[C@@]1(O)Cc2ccc(cc2)C/C=C\CNC(=O)[C@H](C(C)C)NC1=O)Cc1ccc(Br)cc1)C(C)(C)C
Papp [4]: 9 ×10⁻⁶ cm/s | CC50 at 120 h [1]: > 50 µM | Ki [2]: 0.0031 µM | EC50 [3]: 0.37 µM

COC(=O)N[C@H](C(=O)NN(CCC[C@@]1(O)Cc2ccc(cc2)C/C=C\CNC(=O)[C@H](C(C)(C)C)NC1=O)Cc1ccc(Br)cc1)C(C)(C)C
Papp [4]: 10 ×10⁻⁶ cm/s | CC50 at 120 h [1]: 30 µM | Ki [2]: 0.0042 µM | EC50 [3]: 1 µM

CNC(=O)[C@@H](NC(=O)[C@@](O)(CCCN(Cc1ccc(Br)cc1)NC(=O)[C@@H](NC(=O)OC)C(C)(C)C)Cc1ccccc1)C(C)C
CC50 at 120 h [1]: > 10 µM | EC50 [3]: 2.1 µM
